From PubChem BioAssay (NCI)
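Briefly, cells in 96-well plates were exposed to five compound concentrations for 48 h, and endpoints were estimated by linear interpolation. TGI: concentration producing complete growth inhibition.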

Tests used:
Assay in all cases: DTP human tumour cell line panel, 48 h
786-0 renal = system: 786-0 renal
A498 renal = system: A498 renal
A549 NSCLC = system: A549 NSCLC
ACHN renal = system: ACHN renal
BT-549 breast = system: BT-549 breast
CAKI-1 renal = system: CAKI-1 renal
CCRF-CEM leukemia = system: CCRF-CEM leukemia
COLO 205 colon = system: COLO 205 colon
DU-145 prostate = system: DU-145 prostate
EKVX NSCLC = system: EKVX NSCLC
HCC-2998 colon = system: HCC-2998 colon
HCT-116 colon = system: HCT-116 colon
HCT-15 colon = system: HCT-15 colon
HL-60(TB) leukemia = system: HL-60(TB) leukemia
HOP-62 NSCLC = system: HOP-62 NSCLC
HOP-92 NSCLC = system: HOP-92 NSCLC
HS 578T breast = system: HS 578T breast
HT29 colon = system: HT29 colon
IGROV1 ovarian = system: IGROV1 ovarian
K-562 leukemia = system: K-562 leukemia
KM12 colon = system: KM12 colon
LOX IMVI melanoma = system: LOX IMVI melanoma
M14 melanoma = system: M14 melanoma
MALME-3M melanoma = system: MALME-3M melanoma
MCF7 breast = system: MCF7 breast
MDA-MB-231 breast = system: MDA-MB-231 breast
MDA-MB-435 = system: MDA-MB-435
MDA-N = system: MDA-N
MOLT-4 leukemia = system: MOLT-4 leukemia
NCI-H226 lung = system: NCI-H226 lung
NCI-H23 lung = system: NCI-H23 lung
NCI-H460 lung = system: NCI-H460 lung
NCI-H522 lung = system: NCI-H522 lung
NCI/ADR-RES ovarian = system: NCI/ADR-RES ovarian
OVCAR-3 ovarian = system: OVCAR-3 ovarian
OVCAR-5 ovarian = system: OVCAR-5 ovarian
OVCAR-8 ovarian = system: OVCAR-8 ovarian
PC-3 prostate = system: PC-3 prostate
RPMI-8226 leukemia = system: RPMI-8226 leukemia
RXF 393 renal = system: RXF 393 renal
SF-268 CNS = system: SF-268 CNS
SF-295 CNS = system: SF-295 CNS
SF-539 CNS = system: SF-539 CNS
SK-MEL-2 melanoma = system: SK-MEL-2 melanoma
SK-MEL-28 melanoma = system: SK-MEL-28 melanoma
SK-MEL-5 melanoma = system: SK-MEL-5 melanoma
SK-OV-3 ovarian = system: SK-OV-3 ovarian
SN12C renal = system: SN12C renal
SNB-19 CNS = system: SNB-19 CNS
SNB-75 CNS = system: SNB-75 CNS
SR leukemia = system: SR leukemia
SW-620 colon = system: SW-620 colon
T-47D breast = system: T-47D breast
TK-10 renal = system: TK-10 renal
U251 CNS = system: U251 CNS
UACC-257 melanoma = system: UACC-257 melanoma
UACC-62 melanoma = system: UACC-62 melanoma
UO-31 renal = system: UO-31 renal
OVCAR-4 ovarian = system: OVCAR-4 ovarian

## CC1=NC(C)(C)[N+]([O-])=C1
786-0 renal
  TGI: > 10 µM
A498 renal
  TGI: > 10 µM
A549 NSCLC
  TGI: > 10 µM
ACHN renal
  TGI: > 10 µM
BT-549 breast
  TGI: > 10 µM
CAKI-1 renal
  TGI: > 10 µM
CCRF-CEM leukemia
  TGI: > 10 µM
COLO 205 colon
  TGI: > 10 µM
DU-145 prostate
  TGI: > 10 µM
EKVX NSCLC
  TGI: > 10 µM
HCC-2998 colon
  TGI: > 10 µM
HCT-116 colon
  TGI: > 10 µM
HCT-15 colon
  TGI: > 10 µM
HL-60(TB) leukemia
  TGI: > 10 µM
HOP-62 NSCLC
  TGI: > 10 µM
HOP-92 NSCLC
  TGI: > 10 µM
HS 578T breast
  TGI: > 10 µM
HT29 colon
  TGI: > 10 µM
IGROV1 ovarian
  TGI: > 10 µM
K-562 leukemia
  TGI: > 10 µM
KM12 colon
  TGI: > 10 µM
LOX IMVI melanoma
  TGI: > 10 µM
M14 melanoma
  TGI: > 10 µM
MALME-3M melanoma
  TGI: > 10 µM
MCF7 breast
  TGI: > 10 µM
MDA-MB-231 breast
  TGI: > 10 µM
MDA-MB-435
  TGI: > 10 µM
MDA-N
  TGI: > 10 µM
MOLT-4 leukemia
  TGI: > 10 µM
NCI-H226 lung
  TGI: > 10 µM
NCI-H23 lung
  TGI: > 10 µM
NCI-H460 lung
  TGI: > 10 µM
NCI-H522 lung
  TGI: > 10 µM
NCI/ADR-RES ovarian
  TGI: > 10 µM
OVCAR-3 ovarian
  TGI: > 10 µM
OVCAR-5 ovarian
  TGI: > 10 µM
OVCAR-8 ovarian
  TGI: > 10 µM
PC-3 prostate
  TGI: > 10 µM
RPMI-8226 leukemia
  TGI: > 10 µM
RXF 393 renal
  TGI: > 10 µM
SF-268 CNS
  TGI: > 10 µM
SF-295 CNS
  TGI: > 10 µM
SF-539 CNS
  TGI: > 10 µM
SK-MEL-2 melanoma
  TGI: > 10 µM
SK-MEL-28 melanoma
  TGI: > 10 µM
SK-MEL-5 melanoma
  TGI: > 10 µM
SK-OV-3 ovarian
  TGI: > 10 µM
SN12C renal
  TGI: > 10 µM
SNB-19 CNS
  TGI: > 10 µM
SNB-75 CNS
  TGI: 4.85 µM
SR leukemia
  TGI: > 10 µM
SW-620 colon
  TGI: > 10 µM
T-47D breast
  TGI: > 10 µM
TK-10 renal
  TGI: > 10 µM
U251 CNS
  TGI: > 10 µM
UACC-257 melanoma
  TGI: > 10 µM
UACC-62 melanoma
  TGI: > 10 µM
UO-31 renal
  TGI: > 10 µM

## O=c1cc(-c2ccccc2)c2ccc(O)c(CN(CCCl)CCCl)c2o1
786-0 renal
  TGI: 39.3 µM
A498 renal
  TGI: 41.6 µM
A549 NSCLC
  TGI: 57.3 µM
ACHN renal
  TGI: 64 µM
BT-549 breast
  TGI: 25 µM
CAKI-1 renal
  TGI: 29.1 µM
CCRF-CEM leukemia
  TGI: 20.7 µM
COLO 205 colon
  TGI: 25.9 µM
DU-145 prostate
  TGI: > 100 µM
EKVX NSCLC
  TGI: 59.1 µM
HCC-2998 colon
  TGI: 25 µM
HCT-116 colon
  TGI: 43.1 µM
HCT-15 colon
  TGI: 45.2 µM
HL-60(TB) leukemia
  TGI: 40.4 µM
HOP-62 NSCLC
  TGI: 33.2 µM
HOP-92 NSCLC
  TGI: 56.8 µM
HS 578T breast
  TGI: 69.5 µM
HT29 colon
  TGI: 26 µM
IGROV1 ovarian
  TGI: 33.8 µM
K-562 leukemia
  TGI: 91.5 µM
KM12 colon
  TGI: 35.8 µM
LOX IMVI melanoma
  TGI: 22.1 µM
M14 melanoma
  TGI: 42 µM
MALME-3M melanoma
  TGI: 41.3 µM
MCF7 breast
  TGI: > 100 µM
MDA-MB-231 breast
  TGI: 33.2 µM
MDA-MB-435
  TGI: 39.9 µM
MDA-N
  TGI: 35.1 µM
MOLT-4 leukemia
  TGI: 47.8 µM
NCI-H226 lung
  TGI: 32.5 µM
NCI-H23 lung
  TGI: 41.7 µM
NCI-H460 lung
  TGI: > 100 µM
NCI-H522 lung
  TGI: 35.7 µM
NCI/ADR-RES ovarian
  TGI: > 100 µM
OVCAR-3 ovarian
  TGI: 40.4 µM
OVCAR-4 ovarian
  TGI: > 100 µM
OVCAR-5 ovarian
  TGI: 34.1 µM
OVCAR-8 ovarian
  TGI: 48.2 µM
PC-3 prostate
  TGI: 36.8 µM
RPMI-8226 leukemia
  TGI: 47.8 µM
RXF 393 renal
  TGI: 30.1 µM
SF-268 CNS
  TGI: 44.5 µM
SF-295 CNS
  TGI: 29.7 µM
SF-539 CNS
  TGI: 44.4 µM
SK-MEL-2 melanoma
  TGI: 59.8 µM
SK-MEL-28 melanoma
  TGI: 36.7 µM
SK-MEL-5 melanoma
  TGI: 31 µM
SN12C renal
  TGI: 38.5 µM
SNB-19 CNS
  TGI: 47 µM
SNB-75 CNS
  TGI: 38.9 µM
SR leukemia
  TGI: 33.1 µM
SW-620 colon
  TGI: 69.7 µM
T-47D breast
  TGI: 55.6 µM
U251 CNS
  TGI: 56.9 µM
UACC-257 melanoma
  TGI: 33.9 µM
UACC-62 melanoma
  TGI: 51.6 µM
UO-31 renal
  TGI: 36.9 µM
